IC50 data for 61 compounds are collected here from the Kinase Knowledgebase extract (Sharma et al. 2016).

SMILES strings stand for the structures.

The target of the assay is MAPK14;MAPK11;MAPK12 (human) (UniProt Q16539). Kind of assay: Inhibition of p38 Kinase Activity.

The IC50 is the concentration that gives 50% inhibition. High values mean lower potency, low ones higher potency. Turning to `CNc1nc(NCC(C)c2ccccc2)nc(Nc2ccc3ncsc3c2)n1` (stereo unspecified), the IC50 was below 10000 nM.

`CC(CNc1nc(Nc2ccc3ncsc3c2)nc(N2CCCCC2)n1)c1ccccc1` (stereo unspecified) gave an IC50 below 10000 nM.

In the case of `Cc1cc2c(cc1Cl)C(=O)N2c1nc(N[C@H]2CCNC2)nc(N(C)CC(C)C)n1`, the IC50 was below 1000 nM.

Turning to `Cc1ccc(C(N)=O)cc1Nc1nc(N[C@@H]2CCNC2)nc(N2CCc3ccccc3C2)n1`, the IC50 is below 1000 nM.

Compound `Cc1ccc(C(N)=O)cc1Nc1nc(N[C@H]2CCNC2)nc(N(C)CC(C)C)n1` returned an IC50 below 1000 nM.

For the compound `Cc1ccc(C(N)=O)cc1Nc1nc(N[C@H]2CCN(Cc3cccc(Cl)c3)C2)nc(N(C)CC(C)C)n1`, the IC50 was below 1000 nM.

`CN(CCN(C)c1nc(NCC2CCC3CC2C3(C)C)nc(Nc2ccc3ncccc3c2)n1)C(=O)CCC(=O)O` (stereo unspecified) gave an IC50 below 10000 nM.

On to `Cc1ccc(C(N)=O)cc1Nc1nc(N[C@H]2CCNC2)nc(N(C)CC23CC4CC(CC(C4)C2)C3)n1`, for which the IC50 was below 1000 nM.

Compound `CC(CNc1nc(N)nc(Nc2ccc3ncsc3c2)n1)c1ccccc1` (stereo unspecified) registered an IC50 below 10000 nM.

With `CCONC(=O)c1ccc(C)c(Nc2nc(NCCO)nc(N(C)CC(C)(C)C)n2)c1`, the IC50 is below 1000 nM.

The compound `CNCCN(C)c1nc(NC[C@@H](C)c2ccccc2)nc(Nc2ccc3ncsc3c2)n1` showed an IC50 below 10000 nM.

In turn, `CC(C)c1nc(NCC(C)c2ccccc2)nc(Nc2ccc3ncsc3c2)n1` (stereo unspecified) registered an IC50 below 10000 nM.

Compound `Cc1ccc(C(N)=O)cc1Nc1nc(NC2CCN(Cc3ccccc3)C2)nc(N[C@H]2CCNC2)n1` (stereo partly specified) came in with an IC50 below 1000 nM.

For `Cc1ccc(C(N)=O)cc1Nc1nc(NCC2(C)CCCC2)nc(N[C@H]2CCNC2)n1`, the half-inhibitory concentration (IC50) is below 1000 nM.

In the case of `CNc1nc(NCc2ccc(F)cc2F)nc(Nc2ccc3ncsc3c2)n1`, the IC50 is below 10000 nM.

Consider `CCNC(=O)c1ccc(C)c(Nc2nc(NC[C@H]3CCCN3)nc(N(C)CC(C)(C)C)n2)c1`, for which the IC50 was below 1000 nM.

Compound `CC(C)C(=O)N1CC2CC1CN2c1nc(NCC(C)c2ccccc2)nc(Nc2ccc3ncsc3c2)n1` (stereo unspecified) registered an IC50 below 10000 nM.

On to `CCONC(=O)c1ccc(C)c(Nc2cc(N3CCCN(C)CC3)nc(N(C)CC(C)(C)C)n2)c1`, for which the IC50 is below 1000 nM.

Turning to `CNCCN(C)c1nc(NCC(C)c2ccccc2)nc(Nc2cccc(Br)c2)n1` (stereo unspecified), the IC50 was below 10000 nM.

`CNC(=O)c1ccc(C)c(Nc2nc(N[C@H]3CCN(Cc4ccccc4)C3)nc(N(C)CC(C)C)n2)c1` yielded an IC50 below 1000 nM.

For the compound `Cc1ccc(N)cc1Nc1nc(N[C@H]2CCNC2)nc(N(C)CC(C)(C)C)n1`, the IC50 was below 1000 nM.

Consider `Cc1ccc(C(N)=O)cc1Nc1nc(NCCC(C)(C)C)nc(N[C@@H]2CCNC2)n1`, for which the IC50 is below 1000 nM.

Take `Cc1ccc(C(=O)NC2CCCC2)cc1Nc1nc(N[C@H]2CCNC2)nc(N(C)CC(C)(C)C)n1`: the IC50 was below 1000 nM.

For `Cc1c(Nc2nc(Cl)nc(NCC(C)c3ccccc3)n2)ccc2ncsc12` (stereo unspecified), the IC50 was below 10000 nM.

In the case of `Cc1ccc(-c2nn(C)c(=O)[nH]2)cc1Nc1nc(N[C@@H]2CCNC2)nc(N(C)CC(C)(C)C)n1`, the IC50 was below 1000 nM.

`CCN1C[C@@H](Nc2nc(Nc3cc(C(N)=O)ccc3C)nc(N(C)CC(C)(C)C)n2)C[C@H]1C`: the IC50 is below 1000 nM.

`Cc1cccc(NC(=O)c2ccc(C)c(Nc3nc(N[C@H]4CCNC4)nc(N(C)CC(C)(C)C)n3)c2)c1` showed an IC50 below 1000 nM.

Turning to `Cc1ccc(C(N)=O)cc1Nc1nc(N[C@H]2CCNC2)cc(N(C)CC(C)C)n1`, the IC50 was below 1000 nM.

The compound `CCNC(=O)c1ccc(C)c(Nc2nc(N[C@@H]3CCN(C4=CC(=O)CC(C)(C)C4)C3)nc(N(C)CC(C)(C)C)n2)c1` displayed an IC50 below 1000 nM.

`Cc1ccc(C(N)=O)cc1Nc1nc(N[C@H]2CCN(C)C2)nc(N(C)CC(C)(C)C)n1` yielded an IC50 below 1000 nM.

`Cc1ccc2c(c1)ncn2-c1nc(NCCOC(C)C)cc(N(C)C)n1`: the IC50 was below 10000 nM.

On to `Cc1ccc(C(N)=O)cc1Nc1nc(Cl)nc(N[C@@H]2CCNC2)n1`, for which the IC50 was below 1000 nM.

For `CNc1nc(Nc2ccc3ncsc3c2)nc(N[C@H](C)C2CCCCC2)n1`, the IC50 was below 10000 nM.

With `CONC(=O)c1ccc(C)c(Sc2nc(N(C)CC(C)(C)C)nc(N3CCCN(C)CC3)n2)c1`, the IC50 was below 30000 nM.

As for `COc1nc(NCC(C)c2ccccc2)nc(Nc2ccc3ncsc3c2)n1` (stereo unspecified), the IC50 is below 10000 nM.

Regarding `COCC(=O)N(C)CCCN(C)c1nc(NCC(C)c2ccccc2)nc(Nc2ccc3ncsc3c2)n1` (stereo unspecified), the IC50 is below 10000 nM.

`CC1(C)C2CCC(CNc3nc(Nc4ccc5ncsc5c4)cc(N4CCNCC4)n3)C1C2` (stereo unspecified) registered an IC50 below 10000 nM.

As to `CONC(=O)c1ccc(C)c(Nc2nc(NCCN3CCOCC3)nc(N(C)CC(C)(C)C)n2)c1`, the IC50 is below 1000 nM.

In turn, `c1nc2ccc(Nc3nc(N4CCNCC4)nc(N4CCC5CCCCC5C4)n3)cc2s1` (stereo unspecified) yielded an IC50 below 10000 nM.

`CNCCN(C)c1nc(NCC2CCC3CC2C3(C)C)nc(Nc2ccc3ncsc3c2)n1` (stereo unspecified) returned an IC50 below 10000 nM.

Compound `Cc1ccc(C(N)=O)cc1Nc1nc(NCC2CCCC2)nc(N[C@H]2CCNC2)n1` showed an IC50 below 1000 nM.

In turn, `CC1(C)C2CCC(CNc3nc(Nc4ccc5[nH]nnc5c4)nc(N4CCNCC4)n3)C1C2` (stereo unspecified) showed an IC50 below 10000 nM.

For the compound `COCCC(=O)N1CC[C@@H](Nc2nc(Nc3cc(C(N)=O)ccc3C)nc(N(C)CC(C)C)n2)C1`, the IC50 is below 1000 nM.

With `Cc1ccc(-c2n[nH]c(=O)[nH]2)cc1Nc1nc(N(C)CC(C)(C)C)nc(N2CCCN(C)CC2)n1`, the IC50 is below 1000 nM.

The compound `CC(CNc1nc(Nc2ccc3ncsc3c2)nc(N(C)CCCN(C)C(=O)c2cccnc2)n1)c1ccccc1` (stereo unspecified) showed an IC50 below 10000 nM.

Regarding `CC1(C)C2CCC(CNc3nc(Nc4ccc5ncoc5c4)nc(N4CCN(C(=O)CCC(=O)O)CC4)n3)C1C2` (stereo unspecified), the IC50 is below 10000 nM.

`CC(=O)N1CCN(c2nc(Nc3ccc4ncsc4c3)nc(N(C)CC3CCC4CC3C4(C)C)n2)CC1` (stereo unspecified) registered an IC50 below 10000 nM.

`c1ccc(C2CCCN(c3nc(Nc4ccc5ncsc5c4)nc(N4CCNCC4)n3)C2)cc1` (stereo unspecified) showed an IC50 below 10000 nM.

`Cc1ccc(C(N)=O)cc1Nc1nc(N[C@@H]2CCNC2)nc(N2CCC(C)(C)CC2)n1` yielded an IC50 below 1000 nM.

`Cc1ccc(C(N)=O)cc1Nc1nc(N[C@H]2CCNC2)nc(N(C)CC(C)(C)C)n1` yielded an IC50 below 1000 nM.

As for `Cc1ccc(C(N)=O)cc1Nc1nc(NCC2CCC2)nc(N[C@H]2CCNC2)n1`, the IC50 was below 1000 nM.

Compound `Cc1ccc(C(=O)NO)cc1Nc1nc(N[C@H]2CCNC2)nc(N(C)CC(C)(C)C)n1` came in with a 50% inhibitory concentration (IC50) below 1000 nM.

`Cc1ccc(C(N)=O)cc1Nc1nc(NC2CCN(Cc3ccc(O)cc3)C2)nc(N(C)CC(C)C)n1` (stereo unspecified) returned an IC50 below 1000 nM.

With `CONC(=O)c1ccc(C)c(Nc2nc(NCCNc3ccccc3)nc(N(C)CC(C)(C)C)n2)c1`, the IC50 was below 1000 nM.

In the case of `Cc1ccc(C(N)=O)cc1Nc1nc(NC2CCCc3ccccc32)nc(N[C@@H]2CCNC2)n1` (stereo partly specified), the IC50 was below 1000 nM.

The compound `CONC(=O)c1ccc(C)c(Nc2nc(NCCCn3ccnc3)nc(N(C)CC(C)(C)C)n2)c1` had an IC50 below 1000 nM.

Regarding `Cc1ccc(C(N)=O)cc1Nc1nc(NC2CCCC2)nc(N(CCO)Cc2ccccc2)n1`, the IC50 is below 1000 nM.

For `CCNC(=O)c1ccc(C)c(Nc2nc(N[C@H]3CCNC3)nc(N(C)CC(C)(C)C)n2)c1`, the IC50 is below 1000 nM.

For the compound `NC(=O)c1ccc(N)c(Nc2nc(NC3CCNC3)nc(N3CCCC3)n2)c1` (stereo unspecified), the IC50 was below 1000 nM.

Take `CNC1CCN(c2cc(NCCOC(C)C)nc(-n3cnc4ccc(C)cc43)n2)C1` (stereo unspecified): the IC50 is below 10000 nM.

For the compound `Cc1ccc(C(N)=O)cc1Nc1nc(NC2CNC2)nc(N(C)CC(C)(C)C)n1`, the IC50 is below 1000 nM.
